Results from PMC7464785 (Pharmaceutics, 2020).
Several values for one entry are separate records, joined by “and”; a condition that tells them apart may be missing. Equal values may be shown once. Read-outs that look alike come from different tables or passages of the source.

Experiments:
[1] = Pharmacokinetics after 1-min intravenous infusion to control, G-ARF and C-ARF rats; assay type: in vivo, Sprague–Dawley rats; details: for CLR estimated from free (unbound to plasma proteins) fractions in plasma: based on 20.7% plasma protein binding; for MRT / clearance / CL renal / half-life / Vd / AUC: Sprague-Dawley, rat, plasma, iv, 10 mg/kg; for clearance: read-out: CL (time-averaged total body clearance); for CL renal: read-out: CLR (time-averaged renal clearance); for half-life: read-out: Terminal half-life; for Vd: read-out: Vss; for AUC: time zero to infinity
Method: (§1) Rats were randomly divided into three groups: control, G-ARF, and C-ARF rats. Acute renal failure was induced in rats by intraperitoneal injection of gentamicin (100 mg/kg, dissolved in 0.9% NaCl-injectable solution) daily for 8 days or by a single intraperitoneal injection of cisplatin (7.5 mg/kg, dissolved in 0.9% NaCl-injectable solution), while control rats were injected with 0.9% NaCl-injectable solution only. […] BUN (Blood urea nitrogen) levels were measured in rats on the last day of induction using a BUN detection kit (Asan Pharmaceutical, Seoul, Korea). Rats with a urea nitrogen level of 36 mg/dL or higher were considered to be acute renal failure-induced and were selected for the study.
(§2) For oral and intravenous administration, pretreatment and surgical procedures were performed as previously reported. For oral study, the rats were restricted from eating food overnight but water was freely accessible. The next day, after anesthesia with ketamine at a dose of 100 mg/kg, polyethylene 50 tubes (Clay Adams, Parsippany, NJ, USA) was cannulated into the carotid artery for blood collection. For intravenous study, polyethylene 50 tubes were cannulated into the carotid artery and jugular vein for blood collection and drug administration, respectively. After surgery, rats were allowed to rest for 2–3 h to recover from anesthesia and were free in the individual metabolic cage during the experiment.
Blood samples (110 μL) were collected through the carotid artery at 0 (prior to drug infusion), 1 (at the end of drug infusion), 5, 15, 30, 45, 60, 90, 120, 180, 240, 360, 480, 600, and 720 min and were centrifuged at 8000 × g for 1 min. […] After collecting each blood sample, 0.3 mL of heparinized 0.9% NaCl-injectable solution (10 IU/mL) was immediately administered to the carotid artery to prevent blood clotting. At 24 h, the rat’s abdomen was open and the entire gastrointestinal tract was removed, transferred to a beaker with 50 mL of methanol, and cut into small pieces.
At 24 h after drug administration, urine samples were also collected. The metabolic cage was rinsed with 20 mL of distilled water, which was combined with the 24-h urine sample.
(§3) A 50-μL aliquot of biological sample was mixed with 1 μL hydrocortisone (5 mg/mL); then, 20 μL of 20% ammonia solution was added, mixed with a vortex-mixer (Scientific Industries, Bohemia, NY, USA) for 30 s, and extracted with 750 µL ethyl acetate. The organic layer was collected, evaporated on a thermobath (Eyela, Tokyo, Japan) under a gentle stream of nitrogen gas at 40 °C and redissolved by adding 130 µL 20% acetonitrile, and 50 µL of each reconstituted sample was analyzed by HPLC [12, 22].
(§4) The reconstituted biological samples were filtered through a 0.45-µm filter (Millipore, Billerica, MA, USA) and analyzed with a reversed-phase column (C18; 25 cm × 4.6 mm, 5 µm; Young Jin Biochrom, Seongnam, Korea) using a UV detector at 287 nm. The mobile phase consisted of 10 mM ammonium acetate buffer (pH 5.0) and acetonitrile at a ratio of 69.5:30.5 (v/v) with a flow rate of 1.0 mL/min.
(§5) To estimate pharmacokinetic parameters such as terminal half-life, the apparent volume of distribution at steady state (Vss), area under plasma concentration-time curves from time zero to time infinity (AUC), mean residence time (MRT), and time-averaged total body (CL), and renal (CLR) and nonrenal (CLNR) clearances, standard methods were applied using noncompartmental analysis (WinNonlin, Pharsight Corporation, Mountain View, CA, USA). AUCs were calculated using the trapezoidal rule-extrapolation method. The peak plasma concentration (Cmax) and time that the plasma concentration was peak (Tmax) were directly confirmed from plasma concentration-time curves.

[2] = Pharmacokinetics after oral administration to control, G-ARF and C-ARF rats; assay type: in vivo, Sprague–Dawley rats; details: for CL renal: read-out: CLR (time-averaged renal clearance); for bioavailability: read-out: F (absolute oral bioavailability)
Method: as §1, §2
Blood samples (110 µL) were collected through the carotid artery at 0 (prior to drug administration), 5, 15, 30, 45, 60, 90, 120, 180, 240, 360, 480, 600, and 720 min. At 24 h after drug administration, urine and gastrointestinal tract samples were collected and handled similarly to those in the intravenous study.
as §3, §4
as §5, with “curves. To calculate the average values of clearances, terminal half-life, and Vss, the harmonic mean method was applied.” for “curves.”

plasma proteins [3] = assay: Plasma protein binding by equilibrium dialysis; assay type: in vitro ADME; details: plasma from control, G-ARF and C-ARF rats; data not shown
[4] = cited from earlier work
[5] = intravenous doses over 20 mg/kg and oral doses over 50 mg/kg; cited from earlier work
plasma proteins [6] = details: equilibrium dialysis; cited from earlier work
[7] = Sprague-Dawley, rat, plasma, po, 20 mg/kg, C-ARF rats
[8] = Sprague-Dawley, rat, plasma, po, 20 mg/kg, G-ARF rats
[9] = Sprague-Dawley, rat, plasma, po, 20 mg/kg, control rats
[10] = control rats, oral 20 mg/kg, 20 mg/kg
[11] = hepatic microsomes of G-ARF rats, not significantly different

Ae0–24 h (dose excreted in the 24-h urine) ([1]; C-ARF rats, iv 10 mg/kg): 0.458 ± 0.626 % of dose | GI24 h (dose remaining in the gastrointestinal tract at 24 h) ([1]; C-ARF rats, iv 10 mg/kg): 0.195 ± 0.157 % of dose | decrease of Ae0–24 h versus control rats ([1]; C-ARF rats, iv 10 mg/kg): 95.2% | decrease of CL versus control rats ([1]; C-ARF rats, iv 10 mg/kg): 62.3% | decrease of CLNR versus control rats ([1]; C-ARF rats, iv 10 mg/kg): 57.4% | decrease of CLR versus control rats ([1]; C-ARF rats, iv 10 mg/kg): 98.6% | increase of AUC versus control rats ([1]; C-ARF rats, iv 10 mg/kg): 163% | increase of MRT versus control rats ([1]; C-ARF rats, iv 10 mg/kg): 154% | increase of terminal half-life versus control rats ([1]; C-ARF rats, iv 10 mg/kg): 240% | CLR estimated from free (unbound to plasma proteins) fractions in plasma ([1]; C-ARF rats, iv 10 mg/kg): 0.0856 mL/min/kg | Ae0–24 h (dose excreted in the 24-h urine) ([1]; G-ARF rats, iv 10 mg/kg): 5.92 ± 2.76 % of dose | GI24 h (dose remaining in the gastrointestinal tract at 24 h) ([1]; G-ARF rats, iv 10 mg/kg): 0.00919 ± 0.0225 % of dose | decrease of Ae0–24 h versus control rats ([1]; G-ARF rats, iv 10 mg/kg): 37.7% | decrease of CL versus control rats ([1]; G-ARF rats, iv 10 mg/kg): 37.7% | decrease of CLNR versus control rats ([1]; G-ARF rats, iv 10 mg/kg): 33.2% | decrease of CLR versus control rats ([1]; G-ARF rats, iv 10 mg/kg): 69.5% | increase of AUC versus control rats ([1]; G-ARF rats, iv 10 mg/kg): 64.0% | increase of MRT versus control rats ([1]; G-ARF rats, iv 10 mg/kg): 96.7% | increase of terminal half-life versus control rats ([1]; G-ARF rats, iv 10 mg/kg): 78.7% | CLR estimated from free (unbound to plasma proteins) fractions in plasma ([1]; G-ARF rats, iv 10 mg/kg): 1.83 mL/min/kg | MRT ([1]; C-ARF rats): 69.1 min | clearance ([1]; C-ARF rats): 14.7 ± 2.29 mL/min/kg | CL renal ([1]; C-ARF rats): 0.0679 ± 0.0917 mL/min/kg | half-life ([1]; C-ARF rats): 134 ± 40.9 min | Vd ([1]; C-ARF rats): 1 ± 0.558 L/kg | AUC ([1]; C-ARF rats): 11600 ng·h/mL | MRT ([1]; G-ARF rats): 53.5 min | clearance ([1]; G-ARF rats): 24.3 ± 6.95 mL/min/kg | CL renal ([1]; G-ARF rats): 1.45 ± 1.54 mL/min/kg | half-life ([1]; G-ARF rats): 70.4 ± 29.6 min | Vd ([1]; G-ARF rats): 1.17 ± 0.519 L/kg | AUC ([1]; G-ARF rats): 7220 ng·h/mL | MRT ([1]; control rats): 27.2 min | clearance ([1]; control rats): 39 ± 7.97 mL/min/kg | half-life ([1]; control rats): 39.4 ± 11.3 min | Vd ([1]; control rats): 1.04 ± 0.402 L/kg | AUC ([1]; control rats): 4400 ng·h/mL | Ae0–24 h (dose excreted in the 24-h urine) ([1]; control rats, iv 10 mg/kg): 9.51 ± 0.879 % of dose | CLR (time-averaged renal clearance) ([1]; control rats, iv 10 mg/kg): 4.75 ± 1.28 mL/min/kg | GI24 h (dose remaining in the gastrointestinal tract at 24 h) ([1]; control rats, iv 10 mg/kg): 0.153 ± 0.306 % of dose | CLR estimated from free (unbound to plasma proteins) fractions in plasma ([1]; control rats, iv 10 mg/kg): 5.99 mL/min/kg | Ae0–24 h (dose excreted in the 24-h urine) ([2]; C-ARF rats, oral 20 mg/kg): 1.16 ± 1.37 % of dose | decrease of Ae0–24 h versus control rats ([2]; C-ARF rats, oral 20 mg/kg): 81.3% | increase of AUC versus control rats ([2]; C-ARF rats, oral 20 mg/kg): 247% | increase of Cmax versus control rats ([2]; C-ARF rats, oral 20 mg/kg): 141% | Ae0–24 h (dose excreted in the 24-h urine) ([2]; G-ARF rats, oral 20 mg/kg): 4.82 ± 3.06 % of dose | decrease of Ae0–24 h versus control rats ([2]; G-ARF rats, oral 20 mg/kg): 22.4% | decrease of CLR versus control rats ([2]; G-ARF rats, oral 20 mg/kg): 69.8% | increase of AUC versus control rats ([2]; G-ARF rats, oral 20 mg/kg): 142% | increase of Cmax versus control rats ([2]; G-ARF rats, oral 20 mg/kg): 198% | GI24 h (dose remaining in the gastrointestinal tract at 24 h) ([2]; G-ARF rats, oral 20 mg/kg, 20 mg/kg): 1.27 % of dose and 1.27 ± 1.72 % of dose | AUC [2, 7]: 12500 ng·h/mL | Tmax [2, 7]: 41.3 min | CL renal [2, 7]: 0.3 ± 0.495 mL/min/kg | Cmax ([2]; Sprague-Dawley, rat, plasma, po, 20 mg/kg, C-ARF rats, read-out: Cmax): 4200 ± 3030 ng/mL | bioavailability [2, 7]: 54.3% | AUC [2, 8]: 8750 ng·h/mL | Tmax [2, 8]: 30.8 min | CL renal [2, 8]: 1.71 ± 0.871 mL/min/kg | Cmax ([2]; Sprague-Dawley, rat, plasma, po, 20 mg/kg, G-ARF rats, read-out: Cmax): 5180 ± 2590 ng/mL | bioavailability [2, 8]: 60.7% | AUC [2, 9]: 3620 ng·h/mL | Tmax [2, 9]: 71.9 min | CL renal [2, 9]: 5.66 ± 1.03 mL/min/kg | bioavailability [2, 9]: 41.3% | GI24 h ([2]; across control, G-ARF and C-ARF rats, oral 20 mg/kg): less than 1.27 % of oral dose | Cmax ([2]; control rats, oral 20 mg/kg): 1740 ± 606 ng/mL | Ae0–24 h (dose excreted in the 24-h urine) [2, 10]: 6.21 % of dose and 6.21 ± 1.12 % of dose | free fractions in the plasma, comparison of groups (plasma proteins [3]): comparable | decrease of Vmax for the disappearance of tofacitinib versus control rats (hepatic microsomes; hepatic microsomes of C-ARF rats, not significantly different): 28.7% | decrease of CLint for the disappearance of tofacitinib versus control rats (hepatic microsomes; hepatic microsomes of C-ARF rats, significantly lower): 54.4% | decrease of CLint for the disappearance of tofacitinib versus control rats (hepatic microsomes; [11]): 31.1% | decrease of Vmax for the disappearance of tofacitinib versus control rats (hepatic microsomes; [11]): 9.52% | Km values, comparison of groups (hepatic microsomes; hepatic microsomes of control, G-ARF and C-ARF rats): comparable among the three groups
Structure (SMILES): C[C@@H]1CCN(C(=O)CC#N)C[C@@H]1N(C)c1ncnc2[nH]ccc12 [tofacitinib, Tofacitinib]
GI24 h (dose remaining in the gastrointestinal tract at 24 h) ([2]; C-ARF rats, oral 20 mg/kg, 20 mg/kg): 0.505 % of dose and 0.505 ± 0.535 % of dose | GI24 h (dose remaining in the gastrointestinal tract at 24 h) [2, 10]: 0.231 % of dose and 0.231 ± 0.235 % of dose | half-life ([4]; healthy volunteers, oral 10 mg): 192 min | oral dose bound to plasma protein ([4]; healthy volunteers, oral 10 mg): Approximately 40% | volume of distribution ([4]; healthy volunteers, oral 10 mg): 87 L | Absolute oral bioavailability (F) ([4]; human): approximately 74% | dose proportionality of AUCs [5]: not dose proportional | plasma protein binding (plasma proteins [6]): 20.7%
